Source: US20240025919A1, “AZA-TETRACYCLIC OXAZEPINE COMPOUNDS AND USES THEREOF” (Genentech, Inc., priority 2022, published 2024)
Like-named read-outs stand apart in the source and are kept apart here.

Experiments:
KRAS G12D = KRAS G12D (Homo sapiens (Human), UniProt P01116, G12D); experiment: KRAS G12D LoEnz Biochemical Assay, BODIPY-GDP Exchange TR-FRET (SOS1-mediated nucleotide exchange); conditions: read-out: KRas (G12D) GDP HTRF IC50
KRAS WT = KRAS WT (Homo sapiens (Human), UniProt P01116); experiment: KRAS WT Biochemical Assay, BODIPY-GDP Exchange TR-FRET (Example 501; 3 nM KRAS WT, 3 nM SOS1, 60-minute incubation)
In short: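 SOS1-mediated exchange assay: 3 nM biotin-KRAS WT with terbium-streptavidin, started with 3 nM SOS1 and 300 nM BODIPY-GDP, HEPES pH 7.5 with MgCl2. TR-FRET (520/490 nm) read after 60 min; normalized to DMSO and full-inhibition control, IC50 from 4-parameter Hill fit.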

KRAS WT, sequence (P01116-2 other isoform, or with tags, fused parts or gaps): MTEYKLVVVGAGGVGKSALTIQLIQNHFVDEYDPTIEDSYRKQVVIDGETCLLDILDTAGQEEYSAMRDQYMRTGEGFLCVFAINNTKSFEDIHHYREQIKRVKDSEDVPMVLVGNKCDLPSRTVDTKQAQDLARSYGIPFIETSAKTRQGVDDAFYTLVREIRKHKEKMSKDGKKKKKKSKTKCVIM
KRAS G12D, sequence (P01116-2 other isoform, or with tags, fused parts or gaps G12D): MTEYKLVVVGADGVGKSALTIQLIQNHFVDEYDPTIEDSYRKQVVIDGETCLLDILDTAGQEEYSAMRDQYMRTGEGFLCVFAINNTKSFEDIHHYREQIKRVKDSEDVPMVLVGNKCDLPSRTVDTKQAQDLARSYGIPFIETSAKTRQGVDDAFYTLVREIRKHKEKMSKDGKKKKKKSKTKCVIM

Row | SMILES | IC50 (KRAS G12D) | IC50 (KRAS WT; read-out: KRas HTRF IC50) | IC50 (KRAS WT; KRas HTRF IC50 [uM])
1 | Cc1nc(N)c(F)c(-c2nc3c4c(nc(OC[C@@]56CCCN5C[C@H](F)C6)nc4c2F)N2C[C@H]4CC[C@H](N4)[C@H]2[C@H](C(F)(F)F)O3)c1C(F)(F)F [Compound 256, 3-Fluoro-4-((5R,5aS,6S,9R)-1-fluoro-12-(((2R,7aS)-2-fluorotetrahydro-1H-pyrrolizin-7a(5H)-yl)methoxy)-5-(trifluoromethyl)-5a,6,7,8,9,10-hexahydro-5H-4-oxa-3,10a,11,13,14-pentaaza-6,9-methanonaphtho[1,8-ab]heptalen-2-yl)-6-methyl-5-(trifluoromethyl)pyridin-2-amine] | 0.82 nM | 0.017 µM | –
2 | Cc1nc(N)c(F)c(-c2nc3c4c(nc(OC[C@@]56CCCN5CC5(CC5(F)F)C6)nc4c2F)N2C[C@H]4CC[C@H](N4)[C@H]2[C@H](C(F)(F)F)O3)c1C(F)(F)F (stereo partly drawn) [Compound 257, 4-((5R,5aS,6S,9R)-12-(((7a'S)-2,2-Difluorodihydro-1′H,3′H-spiro[cyclopropane-1,2′-pyrrolizin]-7a′(5′H)-yl)methoxy)-1-fluoro-5-(trifluoromethyl)-5a,6,7,8,9,10-hexahydro-5H-4-oxa-3,10a,11,13,14-pentaaza[6,9]methanonaphtho[1,8-ab]heptalen-2-yl)-3-fluoro-6-methyl-5-(trifluoromethyl)pyridin-2-amine] | 0.89 nM | 0.00841 µM | –
3 | Cc1c(F)c(N)cc(-c2nc3c4c(nc(OCC5(CN6CC6(C)C)CC5)nc4c2F)N2C[C@H]4CC[C@H](N4)[C@H]2[C@H](C)O3)c1C(F)(F)F (stereo partly drawn) [Compound 259, 5-((5S,5aS,6S,9R)-12-((1-((2,2-Dimethylaziridin-1-yl)methyl)cyclopropyl)methoxy)-1-fluoro-5-methyl-5a,6,7,8,9,10-hexahydro-5H-4-oxa-3,10a,11,13,14-pentaaza-6,9-methanonaphtho[1,8-ab]heptalen-2-yl)-2-fluoro-3-methyl-4-(trifluoromethyl)aniline] | 0.16 nM | – | 0.00971 µM
4 | C[C@@H]1Oc2nc(-c3cc(N)nc(C(F)F)c3C(F)(F)F)c(F)c3nc(OC[C@@]45CCCN4C[C@H](F)C5)nc(c23)N2C[C@H]3CC[C@H](N3)[C@@H]12 [Compound 260, 6-(Difluoromethyl)-4-((5S,5aS,6S,9R)-1-fluoro-12-(((2R,7aS)-2-fluorotetrahydro-1H-pyrrolizin-7a(5H)-yl)methoxy)-5-methyl-5a,6,7,8,9,10-hexahydro-5H-4-oxa-3,10a,11,13,14-pentaaza-6,9-methanonaphtho[1,8-ab]heptalen-2-yl)-5-(trifluoromethyl)pyridin-2-amine] | 0.28 nM | 0.0262 µM | –
5 | Cc1nc(N)cc(-c2nc3c4c(nc(OCC56C[C@@H](F)CN5C[C@H](F)C6)nc4c2F)N2C[C@H]4CC[C@H](N4)[C@H]2[C@H](C(F)(F)F)O3)c1C(F)(F)F [Compound 261, 4-((5R,5aS,6S,9R)-12-(((2R,6R)-2,6-Difluorotetrahydro-1H-pyrrolizin-7a(5H)-yl)methoxy)-1-fluoro-5-(trifluoromethyl)-5a,6,7,8,9,10-hexahydro-5H-4-oxa-3,10a,11,13,14-pentaaza-6,9-methanonaphtho[1,8-ab]heptalen-2-yl)-6-methyl-5-(trifluoromethyl)pyridin-2-amine] | 2.76 nM | 0.0971 µM | –
6 | Cc1nc(N)cc(-c2nc3c4c(nc(OCC5(CN6CC7CC(C6)O7)CC5)nc4c2F)N2C[C@H]4CC[C@H](N4)[C@H]2[C@H](C)O3)c1C(F)(F)F [Compound 265, 4-((5S,5aS,6S,9R)-12-((1-((6-oxa-3-azabicyclo[3.1.1]heptan-3-yl)methyl)cyclopropyl)methoxy)-1-fluoro-5-methyl-5a,6,7,8,9,10-hexahydro-5H-4-oxa-3,10a,11,13,14-pentaaza-6,9-methanonaphtho[1,8-ab]heptalene-2-yl)-6-methyl-5-(trifluoromethyl)pyridin-2-amine] | 0.28 nM | 0.0141 µM | –
7 | Cc1nc(N)cc(-c2nc3c4c(nc(OCC5(CN6CCOC(C(F)(F)F)C6)CC5)nc4c2F)N2C[C@H]4CC[C@H](N4)[C@H]2[C@H](C)O3)c1C(F)(F)F (stereo partly drawn) [Compound 267, 4-((5S,5aS,6S,9R)-1-fluoro-5-methyl-12-((1-((2-(trifluoromethyl)morpholino)methyl)cyclopropyl)methoxy)-5a,6,7,8,9,10-hexahydro-5H-4-oxa-3,10a,11,13,14-pentaaza-6,9-methanonaphtho[1,8-ab]heptalene-2-yl)-6-methyl-5-(trifluoromethyl)pyridin-2-amine] | 2.98 nM | 0.609 µM | –
8 | Cc1nc(N)cc(-c2nc3c4c(nc(OCC5(CN6CC[C@H]7OCC[C@H]76)CC5)nc4c2F)N2C[C@H]4CC[C@H](N4)[C@H]2[C@H](C)O3)c1C(F)(F)F [Compound 268, 4-((5S,5aS,6S,9R)-1-fluoro-12-((1-(((3aR,6aR)-hexahydro-4H-furo[3,2-b]pyrrol-4-yl)methyl)cyclopropyl)methoxy)-5-methyl-5a,6,7,8,9,10-hexahydro-5H-4-oxa-3,10a,11,13,14-pentaaza-6,9-methanonaphtho[1,8-ab]heptalene-2-yl)-6-methyl-5-(trifluoromethyl)pyridin-2-amine] | 0.29 nM | 0.0119 µM | –
9 | Cc1nc(N)cc(-c2nc3c4c(nc(OCC5(CN6C[C@H](F)C[C@H](F)C6)CC5)nc4c2F)N2C[C@H]4CC[C@H](N4)[C@H]2[C@H](C)O3)c1C(F)(F)F [Compound 269, 4-((5S,5aS,6S,9R)-12-((1-(((3S,5R)-3,5-difluoropiperidin-1-yl)methyl)cyclopropyl)methoxy)-1-fluoro-5-methyl-5a,6,7,8,9,10-hexahydro-5H-4-oxa-3,10a,11,13,14-pentaaza-6,9-methanonaphtho[1,8-ab]heptalene-2-yl)-6-methyl-5-(trifluoromethyl)pyridin-2-amine] | 0.42 nM | 0.105 µM | –
10 | COCC1(F)CCN(CC2(COc3nc4c5c(nc(-c6cc(N)nc(C)c6C(F)(F)F)c(F)c5n3)O[C@@H](C)[C@@H]3[C@@H]5CC[C@H](CN43)N5)CC2)C1 (stereo partly drawn) [Compound 270, 4-((5S,5aS,6S,9R)-1-fluoro-12-((1-((3-fluoro-3-(methoxymethyl)pyrrolidin-1-yl)methyl)cyclopropyl)methoxy)-5-methyl-5a,6,7,8,9,10-hexahydro-5H-4-oxa-3,10a,11,13,14-pentaaza-6,9-methanonaphtho[1,8-ab]heptalen-2-yl)-6-methyl-5-(trifluoromethyl)pyridin-2-amine] | 0.26 nM | 0.0107 µM | –
11 | COC1(C(F)F)CN(CC2(COc3nc4c5c(nc(-c6cc(N)nc(C)c6C(F)(F)F)c(F)c5n3)O[C@@H](C)[C@@H]3[C@@H]5CC[C@H](CN43)N5)CC2)C1 [Compound 271, 4-((5S,5aS,6S,9R)-12-((1-((3-(difluoromethyl)-3-methoxyazetidin-1-yl)methyl)cyclopropyl)methoxy)-1-fluoro-5-methyl-5a,6,7,8,9,10-hexahydro-5H-4-oxa-3,10a,11,13,14-pentaaza-6,9-methanonaphtho[1,8-ab]heptalene-2-yl)-6-methyl-5-(trifluoromethyl)pyridin-2-amine] | 0.51 nM | 0.0564 µM | –
